The target of the assay is T1, HIV-integrase (Human immunodeficiency virus type 1 group M subtype B, UniProt P12497).
T1 construct: Recombinant integrase (0.26 ng) was incubated with the beads
Put plainly: HIV-Integrase Inhibition Activity (SPA bead strand transfer assay). It is filed as biochemical. As to conditions: recombinant integrase, biotin labeled substrate DNA on SPA beads, P33 labeled target DNA. As for the experimental part: HIV-Integrase InhibitionActivity. To evaluate in-vitro activity against HIV-integrase, 5 pmole of biotin labeled substrate DNA was bound to 100 μg of Streptavidin coated PVT SPA beads (Amersham Pharmacia Biotech). Recombinant integrase (0.26 ng) was incubated with the beads for 90 min at 37° C. Unbound enzyme was removed by washing the complex followed by addition of inhibitors and 0.1 fmol of P33 labeled target DNA. The reaction was stopped by adding EDTA to a final concentration of 10 mM. Samples were counted in TopCountNXT (Packard) and the CPM was used as a measure of integration. The reaction condition was as described in A. Engelman and R. Craigie, J. Virol 69, 5908–5911 (1995). The sequences of substrate and target DNA were described in Nucleic Acid Research 22, 1121–1122 (1994).
With `CNC(=O)c1cc(F)ccc1CNC(=O)c1nc2n(c(=O)c1O)CCC=C2c1ccccc1` [Example 9, N-(4-Fluoro-2-(methylcarbamoyl)benzyl)-3-hydroxy-4-oxo-9-phenyl-6,7-dihydro-4H-pyrido[1,2-a]pyrimidine-2-carboxamide], the half-inhibitory concentration (IC50) lay in the range of 2 to 9 nM.
The result for `O=C(NCc1ccc(F)cc1)c1nc2n(c(=O)c1O)CCC=C2c1cccnc1` [Example 10, N-(4-Fluorobenzyl)-3-hydroxy-4-oxo-9-(pyridin-3-yl)-6,7-dihydro-4H-pyrido[1,2-a]pyrimidine-2-carboxamide] reads 2 to 9 nM; that for `CC1(C)CCCCn2c1nc(C(=O)NCc1ccc(F)cc1)c(O)c2=O` [Example 12, N-(4-Fluorobenzyl)-3-hydroxy-10,10-dimethyl-4-oxo-4,6,7,8,9,10-hexahydropyrimido[1,2-a]azepine-2-carboxamide], 2 to 9 nM.
The result for `CNC(=O)c1cc(F)ccc1CNC(=O)c1nc2n(c(=O)c1O)CCC2(C)C` [Example 2, N-(4-Fluoro-2-(methylcarbamoyl)benzyl)-3-hydroxy-8,8-dimethyl-4-oxo-4,6,7,8-tetrahydropyrrolo[1,2-a]pyrimidine-2-carboxamide] reads 10 to 49000 nM.
As to `CC1(C)CCCn2c1nc(C(=O)NCc1ccc(F)cc1-n1cncn1)c(O)c2=O` [Example 6, N-(4-Fluoro-2-(1H-1,2,4-triazol-1-yl)benzyl)-3-hydroxy-9,9-dimethyl-4-oxo-6,7,8,9-tetrahydro-4H-pyrido[1,2-a]pyrimidine-2-carboxamide], the IC50 was in the range of 2 to 9 nM.
As for `O=C(NCc1ccc(Cl)c(Cl)c1)c1nc2n(c(=O)c1O)CCC=C2c1ccccc1` [Example 7, N-(3,4-Dichlorobenzyl)-3-hydroxy-4-oxo-9-phenyl-6,7-dihydro-4H-pyrido[1,2-a]pyrimidine-2-carboxamide], the IC50 fell in the range of 2 to 9 nM.
For `CNC(=O)c1cc(F)ccc1CNC(=O)c1nc2n(c(=O)c1O)CCCC2(C)C` [Example 5, N-(4-Fluoro-2-(methylcarbamoyl)benzyl)-3-hydroxy-9,9-dimethyl-4-oxo-6,7,8,9-tetrahydro-4H-pyrido[1,2-a]pyrimidine-2-carboxamide], the IC50 lay within 2 to 9 nM.
Turning to `CC1(C)CCn2c1nc(C(=O)NCc1ccc(F)cc1-n1cncn1)c(O)c2=O` [Example 3, N-(4-fluoro-2-(1H-1,2,4-triazol-1-yl)benzyl)-3-hydroxy-8,8-dimethyl-4-oxo-4,6,7,8-tetrahydropyrrolo[1,2-a]pyrimidine-2-carboxamide], the IC50 is 2 to 9 nM.
With `O=C(NCc1ccc(F)cc1)c1nc2n(c(=O)c1O)CCC=C2c1ccccc1` [Example 8, N-(4-Fluorobenzyl)-3-hydroxy-4-oxo-9-phenyl-6,7-dihydro-4H-pyrido[1,2-a]pyrimidine-2-carboxamide], the IC50 lay in the range of 2 to 9 nM.
The result for `CC1(C)CCCn2c1nc(C(=O)NCc1ccc(F)cc1)c(O)c2=O` [Example 4, 3-Hydroxy-9,9-dimethyl-4-oxo-6,7,8,9-tetrahydro-4H-pyrido[1,2-a]pyrimidine-2-carboxylic acid 4-fluoro-benzylamide] reads 2 to 9 nM; that for `CC1(C)CCn2c1nc(C(=O)NCc1ccc(F)cc1)c(O)c2=O` [Example 1, N-(4-Fluorobenzyl)-3-hydroxy-8,8-dimethyl-4-oxo-4,6,7,8-tetrahydropyrrolo[1,2-a]pyrimidine-2-carboxamide], 2 to 9 nM; that for `CC1(C)CCCCn2c1nc(C(=O)NCc1ccc(F)cc1-n1cncn1)c(O)c2=O` [Example 13, N-(4-Fluoro-2-(1H-1,2,4-triazol-1-yl)benzyl)-3-hydroxy-10,10-dimethyl-4-oxo-4,6,7,8,9,10-hexahydropyrimido[1,2-a]azepine-2-carboxamide], 2 to 9 nM.
The result for `CNC(=O)c1cc(F)ccc1CNC(=O)c1nc2n(c(=O)c1O)CCC=C2c1cccnc1` [Example 11, N-(4-Fluoro-2-(methylcarbamoyl)benzyl)-3-hydroxy-4-oxo-9-(pyridin-3-yl)-6,7-dihydro-4H-pyrido[1,2-a]pyrimidine-2-carboxamide] reads 2 to 9 nM.

These data come from US7173022B2, “Bicyclic heterocycles as HIV integrase inhibitors” (priority 2004, dated 2007).
